The source of these data is US12479821B2 (MBD CO., LTD., priority 2019, dated 2025).

The target of one test is T1, CYP4A (Homo sapiens, UniProt Q02928).
T1 construct: host or cells: bactosome, i.e. bacterial membrane preparation (own knowledge of the term)
T1 sequence (Q02928 5-519): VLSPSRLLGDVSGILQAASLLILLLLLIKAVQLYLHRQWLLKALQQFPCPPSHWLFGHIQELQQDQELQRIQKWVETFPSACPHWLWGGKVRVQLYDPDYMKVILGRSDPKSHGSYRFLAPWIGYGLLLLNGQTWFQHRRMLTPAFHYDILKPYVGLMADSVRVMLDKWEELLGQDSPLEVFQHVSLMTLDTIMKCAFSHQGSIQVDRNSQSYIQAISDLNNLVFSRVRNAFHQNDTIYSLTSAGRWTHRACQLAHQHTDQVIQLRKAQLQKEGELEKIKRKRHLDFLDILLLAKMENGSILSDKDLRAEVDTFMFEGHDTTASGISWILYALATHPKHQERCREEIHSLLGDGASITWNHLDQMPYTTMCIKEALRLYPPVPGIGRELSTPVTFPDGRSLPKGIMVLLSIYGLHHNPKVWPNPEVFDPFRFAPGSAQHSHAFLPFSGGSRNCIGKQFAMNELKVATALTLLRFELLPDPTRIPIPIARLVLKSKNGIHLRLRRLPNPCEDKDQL
Briefly: CYP4A enzyme assay (Luciferin-ME luminescence, CYP4A bactosome). In kind it is biochemical. Particulars: compound concentration 5 μM; 25%-50%; read-out: % Inhibition 25%-50%. As to the method:
A commercially available reagent was used for the reagent used in the experiment, and it was manufactured and used if necessary. The device used for activity measurement was EnVision of PerkinElmer or SpectraMax of MOLECULAR DEVICES.
First, CYP4A bactosome and synthetic compound (5 μM) were mixed in assay buffer (100 mM KPO4, 0.1% BSA, 1 mM DTT) in a 384-well plate (white opaque ploystyrene nontreated flat-bottom well), and then reacted at room temperature for 15 minutes. After adding 5 mM Luciferin-ME and NADPH Regeneration system (10× sol.A, 20× sol.B in assay buffer, Cat. Number: V865B, Promega), leave it at room temperature for 30 minutes to allow the CYP4A reaction to occur sufficiently, by adding the Luciferin Detection reagent, the CYP4A reaction was finished, luminescence reaction was induced, and the reaction was carried out at room temperature for 15 minutes. The degree of inhibition of CYP4A activity was measured by comparing the luminescence values from each well with a microplate reader.
Regarding `Cc1cc(N2CCN(C(=O)C3CCCN(S(=O)(=O)c4ccc(Oc5ccccc5)cc4)C3)CC2)c2ccccc2n1` (stereo not shown) [Formula 34, (4-(2-methylquinolin-4-yl)piperazin-1-yl) (1-(4-phenoxyphenylsulfonyl)piperidin-3-yl) methanone], the inhibition (commonly how much of the control response was suppressed) at 5 µM was 25 to 50%.
Still for that read-out and setting: with `COc1ccc2c(N3CCN(C(=O)C4CCCN(S(=O)(=O)c5ccc(C)cc5)C4)CC3)ccnc2c1` (stereo not shown) [Formula 88, (4-(7-methoxyquinolin-4-yl)piperazin-1-yl) (1-tosylpiperidin-3-yl) methanone] the figure was 0%; with `O=C(C1CCCN(S(=O)(=O)c2ccc(C(F)(F)F)cc2)C1)N1CCN(c2cc(C(F)(F)F)nc3ccccc23)CC1` (stereo not shown) [Formula 71, (1-(4-(trifluoromethyl)phenylsulfonyl)piperidin-3-yl) (4-(2-(trifluoromethyl)quinolin-4-yl)piperazin-1-yl) methanone], 25 to 50%; with `Cc1ccc(S(=O)(=O)N2CCCC(C(=O)N3CCN(c4cc(C(F)(F)F)nc5ccccc45)CC3)C2)cc1` (stereo not shown) [Formula 65, (1-tosylpiperidin-3-yl) (4-(2-(trifluoromethyl)quinolin-4-yl)piperazin-1-yl) methanone], 25 to 50%.
For `Cc1cc(N2CCN(C(=O)C3CCCN(S(=O)(=O)c4ccccc4)C3)CC2)c2ccccc2n1` (stereo not shown) [Formula 19, (4-(2-methylquinolin-4-yl)piperazin-1-yl) (1-(phenylsulfonyl)piperidin-3-yl) methanone], the inhibition at 5 µM was 25 to 50%.

The test is the same for the next values; noted with them: compound concentration 5 μM; 75% or more; read-out: % Inhibition 75% or more.
In the case of `O=C(C1CCCN(S(=O)(=O)c2ccc(Br)cc2)C1)N1CCN(c2ccnc3cc(F)ccc23)CC1` (stereo not shown) [Formula 56, (1-(4-bromophenylsulfonyl)piperidin-3-yl) (4-(7-fluoroquinolin-4-yl)piperazin-1-yl)methanone], the inhibition at 5 µM is at least 75%.
The same measure, in the same setting: next, `COc1ccc(S(=O)(=O)N2CCCC(C(=O)N3CCN(c4ccnc5cc(F)ccc45)CC3)C2)cc1` (stereo not shown) [Formula 53, (4-(7-fluoroquinolin-4-yl)piperazin-1-yl) (1-(4-methoxyphenylsulfonyl)piperidin-3-yl) methanone]: at least 75%; `COc1cccc(S(=O)(=O)N2CCCC(C(=O)N3CCN(c4ccnc5cc(F)ccc45)CC3)C2)c1` (stereo not shown) [Formula 58, (4-(7-fluoroquinolin-4-yl)piperazin-1-yl) (1-(3-methoxyphenylsulfonyl)piperidin-3-yl) methanone]: at least 75%; `Cc1cc(N2CCN(C(=O)C3CCCN(S(=O)(=O)c4ccc(-c5ccccc5)cc4)C3)CC2)c2ccccc2n1` (stereo not shown) [Formula 38, (4-(2-methylquinolin-4-yl)piperazin-1-yl) (1-(4-phenylbenzenesulfonyl)piperidin-3-yl) methanone]: at least 75%.
On the same count and under the same terms, next, `CC(=O)Nc1ccc(S(=O)(=O)N2CCC[C@@H](C(=O)N3CCN(c4cc(C)nc5ccccc45)CC3)C2)cc1` [Formula 16, (R)—N-(4-((3-(4-(2-methylquinolin-4-yl)piperazine-1-carbonyl)piperidin-1-yl)sulfonyl)phenyl) acetamide]: at least 75%; `COc1cccc(S(=O)(=O)N2CCCC(C(=O)N3CCN(c4ccnc5cc(Cl)ccc45)CC3)C2)c1` (stereo not shown) [Formula 14]: at least 75%.
On the same count and under the same terms, next, `O=C(C1CCCN(S(=O)(=O)c2ccc([N+](=O)[O-])cc2)C1)N1CCN(c2ccnc3ccccc23)CC1` (stereo not shown) [Formula 81, (1-(4-nitrophenylsulfonyl)piperidin-3-yl) (4-(quinolin-4-yl)piperazin-1-yl) methanone]: at least 75%; `CC(=O)Nc1ccc(S(=O)(=O)N2CCCC(C(=O)N3CCN(c4ccnc5ccccc45)CC3)C2)cc1` (stereo not shown) [Formula 78, N-(4-((3-(4-(quinolin-4-yl)piperazine-1-carbonyl)piperidin-1-yl)sulfonyl)phenyl) acetamide]: at least 75%.
With `O=C(C1CCCN(S(=O)(=O)c2ccc([N+](=O)[O-])cc2)C1)N1CCN(c2ccnc3cc(F)ccc23)CC1` (stereo not shown) [Formula 50, (4-(7-fluoroquinolin-4-yl)piperazin-1-yl) (1-(4-nitrophenylsulfonyl)piperidin-3-yl) methanone], the inhibition at 5 µM was at least 75%.
On to `O=C(C1CCCN(S(=O)(=O)c2ccc(F)cc2)C1)N1CCN(c2ccnc3cc(F)ccc23)CC1` (stereo not shown) [Formula 42, (1-((4-fluorophenyl)sulfonyl)piperidin-3-yl) (4-(7-fluoroquinolin-4-yl)piperazin-1-yl) methanone], for which the inhibition at 5 µM is at least 75%.
Still for that read-out and setting: next, `O=C([C@@H]1CCCN(S(=O)(=O)c2cccc([N+](=O)[O-])c2)C1)N1CCN(c2ccnc3cc(F)ccc23)CC1` [Formula 60, (R)-(4-(7-fluoroquinolin-4-yl)piperazin-1-yl) (1-(3-nitrophenylsulfonyl)piperidin-3-yl) methanone]: at least 75%.
Same read-out and setting: next, `Cc1cc(N2CCN(C(=O)C3CCCN(S(=O)(=O)c4ccc(O)cc4)C3)CC2)c2ccccc2n1` (stereo not shown) [Formula 32, (1-(4-hydroxyphenylsulfonyl)piperidin-3-yl) (4-(2-methylquinolin-4-yl)piperazin-1-yl) methanone]: at least 75%.
Still for that read-out and setting: next, `Cc1cc(N2CCN(C(=O)C3CCCN(S(=O)(=O)c4ccc(-c5ccncc5)cc4)C3)CC2)c2ccccc2n1` (stereo not shown) [Formula 102, (4-(2-methylquinolin-4-yl)piperazin-1-yl) (1-((4-(pyridin-4-yl)phenyl)sulfonyl)piperidin-3-yl)methanone]: 0%.

The test is the same for the next values; noted with them: compound concentration 5 μM; '50%-75%'; read-out: % Inhibition 50%-75%.
For `Nc1ccc(S(=O)(=O)N2CCCC(C(=O)N3CCN(c4ccnc5ccccc45)CC3)C2)cc1` (stereo not shown) [Formula 97, (1-(4-aminophenylsulfonyl)piperidin-3-yl) (4-(quinolin-4-yl)piperazin-1-yl) methanone], the inhibition at 5 µM was determined as 0%.
The same measure, in the same setting: with `Cc1ccc(S(=O)(=O)N2CCCC(C(=O)N3CCN(c4ccnc5cc(Cl)ccc45)CC3)C2)cc1` (stereo not shown) [Formula 2, (4-(7-chloroquinolin-4-yl)piperazin-1-yl) (1-tosylpiperidin-3-yl) methanone] the figure was 50 to 75%; with `O=C(C1CCCN(S(=O)(=O)c2cccc(O)c2)C1)N1CCN(c2ccnc3cc(Cl)ccc23)CC1` (stereo not shown) [Formula 92, (4-(7-chloroquinolin-4-yl)piperazin-1-yl) (1-(3-hydroxyphenylsulfonyl)piperidin-3-yl) methanone], 50 to 75%.
Turning to `Cc1cc(N2CCN(C(=O)C3CCCN(S(=O)(=O)c4ccc(S(C)(=O)=O)cc4)C3)CC2)c2ccccc2n1` (stereo not shown) [Formula 36, (4-(2-methylquinolin-4-yl)piperazin-1-yl) (1-(4-(methylsulfonyl)phenylsulfonyl)piperidin-3-yl) methanone], the inhibition at 5 µM was 50 to 75%.
Still for that read-out and setting: with `O=C(C1CCCN(S(=O)(=O)c2ccccc2)C1)N1CCN(c2ccnc3cc(F)ccc23)CC1` (stereo not shown) [Formula 41, (4-(7-fluoroquinolin-4-yl)piperazin-1-yl) (1-(phenylsulfonyl)piperidin-3-yl) methanone] the figure was 50 to 75%; with `Cc1cc(N2CCN(C(=O)C3CCCN(S(=O)(=O)c4cccc(O)c4)C3)CC2)c2ccccc2n1` (stereo not shown) [Formula 93, (1-(3-hydroxyphenylsulfonyl)piperidin-3-yl) (4-(2-methylquinolin-4-yl)piperazin-1-yl) methanone], 50 to 75%; with `COc1cccc(S(=O)(=O)N2CCCC(C(=O)N3CCN(c4cc(C)nc5ccccc45)CC3)C2)c1` (stereo not shown) [Formula 39, (1-(3-methoxyphenylsulfonyl)piperidin-3-yl) (4-(2-methylquinolin-4-yl)piperazin-1-yl) methanone], 50 to 75%.
On the same count and under the same terms, with `COc1ccc2c(N3CCN(C(=O)C4CCCN(S(=O)(=O)c5ccc(N(C)C)cc5)C4)CC3)ccnc2c1` (stereo not shown) [Formula 90, (1-(4-(dimethylamino)phenylsulfonyl)piperidin-3-yl) (4-(7-methoxyquinolin-4-yl)piperazin-1-yl) methanone] the figure was 50 to 75%; with `CN(C)c1ccc(S(=O)(=O)N2CCCC(C(=O)N3CCN(c4cc(C(F)(F)F)nc5ccccc45)CC3)C2)cc1` (stereo not shown) [Formula 67, (1-(4-(dimethylamino)phenylsulfonyl)piperidin-3-yl) (4-(2-(trifluoromethyl)quinolin-4-yl)piperazin-1-yl) methanone], 50 to 75%.

The test is the same for the next values; noted with them: compound concentration 5 μM; mark in column '25% or less'; read-out: % Inhibition 25% or less.
Take `O=C(C1CCCN(S(=O)(=O)c2ccccc2)C1)N1CCN(c2cc(C(F)(F)F)nc3ccccc23)CC1` (stereo not shown) [Formula 64, (1-(phenylsulfonyl)piperidin-3-yl) (4-(2-(trifluoromethyl)quinolin-4-yl)piperazin-1-yl)methanone]: the inhibition at 5 µM was at most 25%.
